This note sets out measurements from patent publication US7102000B2, “Heterocyclic amide derivatives for the treatment of diabetes and other diseases” (Incyte San Diego Inc., priority 2002, dated 2006).

Experiment [1] concerns KKA^y mice. The experiment can be described thus: Oral treatment of type 2 diabetes in KKA^y mice (serum glucose, triglyceride, cholesterol). The format is in vivo, mouse. As to conditions: KKA^y mice, oral once daily, vs control mice, FIGS. 2a–d. An excerpt:
The procedure for this in-vivo assay for anti-diabetes activity was described in detail by Iwatsuka, et al. (1970 General Survey of Diabetic Features of Yellow KK Mice. Endocrinol. Japon. 17: 23–35, incorporated herein in its entirety by reference).
Experimental Procedures: Six to eight week-old male KKA^y mice (obtained from Jackson Labs of Bar Harbord, Me.) were housed in a fixed 12–12-hr artificial light-dark cycle, and maintained on a standard rodent diet provided ad libitum. Animals were allowed two days to acclimate in this experimental environment prior to the initiation of the study.
Prior to initiation of treatment with the compounds of the invention, the animals were bled from the tail vein (100–200 μL of whole blood) and serum levels of glucose and triglycerides were measured in duplicate (Trinder kits; Sigma, St. Louis, Mo.). Based on these initial measures, animals were sorted into groups with approximately the same average serum glucose levels. Once sorted, the animals were housed one per cage and provided rodent diet ad libitum. Unless otherwise indicated, compounds were suspended in sesame oil, and administered by oral gavage once daily to animals in a volume of 3 ml/kg/dose.
Treatment Group A (n=5/group): (See Results in FIG. 2a) • 1) KKA^y vehicle control (sesame oil) • 2) Compound 1 (3 mg/kg) • 3) Compound 1 (10 mg/kg) • 4) Compound 2 (3 mg/kg) • 5) Compound 2 (10 mg/kg)
Treatment Group B (n=6/group): (See Results in FIG. 2b) • 1) KKA^y vehicle control (sesame oil) • 2) Compound 11 (15 mg/kg)
Treatment Group C (n=6/group): (See Results in FIG. 2c) • 1) KKA^y vehicle control (sesame oil) • 2) Compound 13 (15 mg/kg)
Treatment Group D (n=6/group): (See Results in FIG. 2d) • 1) KKA^y vehicle control (CMC) • 2) Compound 25 (3 mg/kg, CMC) Compound 25 was suspended in a solution of carboxymethyl cellulose (CMC; 1% carboxy methyl cellulose in H2O, with 10% polyethelene glycol 400), and administered to animals in a volume of 5 ml/kg/dose.
Treatment Group E (n=5/group): (See Results in FIG. 2e) • 1) KKA^y vehicle control (10% HPβCD) • 2) Compound 25 (1 mg/kg) • 3) Compound 25 (3 mg/kg) • 4) Compound 25 (10 mg/kg) Compound 25 was dissolved in a 10% hydroxy propyl beta cyclodextrin solution, and administered to animals in a volume of 10 ml/kg/dose.
Serum glucose, triglyceride and/or cholesterol levels were measured in duplicate. The blood is kept at room temperature to allow coagulation, after which the serum is separated and assayed for glucose, triglyceride and/or cholesterol levels. As shown in FIGS. 2a–2d all of the compounds tested reduced serum glucose and triglyceride levels, some with doses as low as 3 mg/kg when administered once a day.

Experiment [2] relates to carcinogen induced mammary tumors. The experiment in a line: Progression of carcinogen induced mammary tumors in Sprague Dawley rats. The format is in vivo, rat. To be noted: oral once daily for four weeks, FIG. 6; for growth / progression of mammary (breast cancer) tumors: vs vehicle treated controls; for number of static tumors: compared to control animals. On the procedure: Procedure: Five week-old female Sprague Dawley rats (Harlan) were housed in a fixed 12–12-hr artificial light-dark cycle, and maintained on a standard rodent diet provided ad libitum. Animals were allowed two days to acclimate in this experimental environment prior to the initiation of the study.
To induce mammary tumors, the female […] were injected intraperitoneally with the carcinogen n-nitroso-n-methylurea, in a single dose of 50 mg/kg in acidified normal saline (pH 4 w/acetic acid) at a final volume of 10 mg/ml (5 ml/kg). After eight weeks, mammary tumors are detected, and the tumor bearing females are sorted into treatment groups. Once sorted, the animals were housed four per cage and provided rodent diet ad libitum. All animals are treated with compound 1 or a vehicle for four weeks, during which time changes in tumor size are monitored. Tumors were classified as regressing, static or progressing.
Treatment groups (n=8/group): • 1) Control (sesame oil) • 2) Compound 6 (20 mg/kg) • 3) Compound 11 (100 mg/kg) • 4) Compound 13 (50 mg/kg) • 5) Compound 24 (50 mg/kg) • 6) Compound 25 (20 mg/kg) • 7) Compound 25 (100 mg/kg)
All of the compounds tested were suspended in sesame oil, and administered to animals in a volume of 3 ml/kg/dose, except compound 25 which was dissolved in a 10% hydroxy propyl beta cyclodextrin solution, and administered to animals in a volume of 10 ml/kg/dose. All treatments were administered by oral gavage once daily for four weeks.
To monitor the effect of the tested compound, animals were examined for mammary tumors once every week. Tumors were classified into one of three categories, progressing, static or regressing.

For experiment [3], the system named is diet-induced hypercholesterolemic Sprague Dawley rats. The experiment in a line: Diet-induced hypercholesterolemia in wild type Sprague Dawley rats (total, HDL, LDL cholesterol). As to conditions: Sprague Dawley rats on atherogenic diet, oral once daily, day 5, FIGS. 5a–c. It counts as in vivo, rat. From the text: Experimental Procedure: Six week-old male Sprague Dawley rats (obtained from Harlan of San Diego, Calif.) were housed in a fixed 12—12-hr artificial light-dark cycle, and maintained on a high cholesterol atherogenic diet (Paigen's Diet, obtained from Research Diet Inc. of New Brounswick, N.J.) was provided ad libitum. Animals were allowed six days to acclimate in this experimental environment prior to the initiation of the study.
Prior to initiation of treatment, the animals were bled from the tail vein (100–200 μL of whole blood) and serum levels of cholesterol were measured in duplicate (Cholesterol Infinity kits; Sigma, St. Louis, Mo.). Based on these initial measures, animals were sorted into groups with approximately the same average total cholesterol levels. Once sorted, the animals were housed three per cage and maintained on Paigen's diet ad libitum. All compounds to be tested were suspended in sesame oil and administered in a final volume of 3 ml/kg. Drug is administered by oral gavage once daily at the beginning of the artificial light cycle. To obtain a base line for lipid measurement, a control group maintained on standart rodent diet is included (lean control).
Treatment Group A (n=6/group): (See Results in FIG. 5a) • 1) Lean control (Sesame Oil) • 2) Control • 3) Compound 2 (0.3 mg/kg) • 4) Compound 2 (1 mg/kg) • 5) Compound 2 (3 mg/kg)
Treatment Group B (n=6/group): (See Results in FIG. 5b) • 1) Lean control (Sesame Oil) • 2) Control • 3) Compound 6 (3 mg/kg)
Treatment Group C (n=6/group): (See Results in FIG. 5c) • 1) Lean control (10% HPβCD) • 2) Control • 3) Compound 25 (1 mg/kg) • 4) Compound 25 (3 mg/kg) • 5) Compound 25 (10 mg/kg) • 6) Compound 25 (15 mg/kg) • The compounds were dissolved in a 10% hydroxy propyl beta cyclodextrin solution, and administered to animals in a volume of 10 ml/kg/dose.
To monitor the effect of the tested compounds, animals were bled from the tail vein at the end of the dark cycle on days 0 (for sorting) and day 5 of the treatment period. Fed serum cholesterol levels were measured in duplicate. The blood is kept at room temperature to allow coagulation, after which the serum is separated and assayed for total cholesterol (Infinity reagent, Sigma), HDL cholesterol (using HDL precipitating reagent and infinity reagent, Sigma) and LDL cholesterol (EZLDL kit, Sigma). As shown in FIGS. 5a–c, all compounds tested show significant reduction in total and LDL cholesterol levels and a significant increase in HDL cholesterol levels compared to high fat fed control animals.

`Cc1cc2c(cc1-c1cc(/C=C3\SC(=O)NC3=O)ccc1OC(F)(F)F)N(C)C(=O)CC2(C)C` [Compound 1, 5-[3-(1,4,4,6-Tetramethyl-2-oxo-1,2,3,4-tetrahydro-quinolin-7-yl)-4-trifluoromethoxy-benzylidene]-thiazolidine-2,4-dione]: in experiment [1], the serum glucose level entry was “decrease” and the serum triglyceride level result is “decrease”.

For the molecule `CCN1C(=O)CC(C)(C)c2cc(C)c(-c3cc(/C=C4\SC(=O)NC4=O)ccc3Cl)cc21` [Compound 6, 5-[3-(1-Ethyl-4,4,6-trimethyl-2-oxo-1,2,3,4-tetrahydro-quinolin-7-yl)-4-chloro-benzylidene]-thiazolidine-2,4-dione], the “growth / progression of mammary (breast cancer) tumors” value (“growth / progression of mammary” for short) in experiment [2] was “slow or cause regression”. Moreover, in experiment [3], the HDL cholesterol result is “increasing”, the LDL cholesterol entry is recorded as “decrease” and the total cholesterol result is “decrease”.

In the case of `Cc1cc2c(cc1-c1cc(/C=C3\SC(=O)NC3=O)ccc1OC(F)(F)F)N(C(C)C)C(=O)CC2(C)C` [Compound 11, 5-[3-(1-Isopropyl-4,4,6-trimethyl-2-oxo-1,2,3,4-tetrahydro-quinolin-7-yl)-4-trifluoromethoxy-benzylidene]-thiazolidine-2,4-dione], in experiment [1], the serum glucose level entry was “decrease” and the serum triglyceride level entry is “decrease”. In experiment [2], the regression of tumors entry is recorded as “without causing any regressions”, the “number of static tumors” value is reported as “only increase the number of static tumors” and the “growth / progression of mammary” value is “slow or cause regression”.

Regarding `CCN1C(=O)CC(C)(C)c2cc(C)c(-c3c(F)c(/C=C4\SC(=O)NC4=O)cc(F)c3OC)cc21` [Compound 13, 5-[3-(1-Ethyl-4,4,6-trimethyl-2-oxo-1,2,3,4-tetrahydro-quinolin-7-yl)-2,5-difluoro-4-methoxy-benzylidene]-thiazolidine-2,4-dione], in experiment [1], the serum glucose level result is “decrease” and the serum triglyceride level entry is listed as “decrease”. In experiment [2], the regression of tumors result is given as “without causing any regressions”, the “number of static tumors” value is on record as “only increase the number of static tumors” and the “growth / progression of mammary” value was “slow or cause regression”.
